Test results published in PMC7842083 (Molecular pharmaceutics, 2020).
Read-outs that look alike come from different tables or passages of the source.

What was measured:
[1] = oral administration; cited from earlier work
in vitro = settings: pH 6; for Papp at 120 min, 0.1 µCi/mL: APP/PS1, mouse; for Papp at 120 min: WT, mouse
[2] = 120 min, mean ± SD
[3] = for time at which plasma concentrations reached a maximum: oral administration
in vivo = settings: female, po

## CCN(C)C(=O)Oc1cccc([C@H](C)N(C)C)c1 [rivastigmine]
[1]
  plasma concentrations in people with AD compared to healthy volunteers: significantly higher

## OC[C@@H](O)[C@@H](O)[C@H](O)[C@H](O)CO [^14C-Mannitol, mannitol]
In vitro
  Papp at 120 min, 0.1 µCi/mL: 6 ± 3.4 ×10⁻⁶ cm/s
  Papp at 120 min: 10.7 ± 3.7 ×10⁻⁶ cm/s
[2]; jejunum from APP/PS1 mice
  % of initial amount at 2 h (absorbed through jejunal tissue): 0.12 ± 0.04 %
[2]; jejunum from WT mice
  % of initial amount at 2 h (absorbed through jejunal tissue): 0.17 ± 0.05%

## CCCCC(=O)N(Cc1ccc(-c2ccccc2-c2nnn[nH]2)cc1)[C@H](C(=O)O)C(C)C [Valsartan, valsartan]
[3]; APP/PS1 mice
  time at which plasma concentrations reached a maximum: 1 h
[3]; WT mice
  time at which plasma concentrations reached a maximum: 1 h
In vitro
  Papp at 120 min: 55.8 ± 16.7 ×10⁻⁶ cm/s

## C[C@H]1O[C@@H](O[C@H]2[C@@H](O)C[C@H](O[C@H]3[C@@H](O)C[C@H](O[C@H]4CC[C@@]5(C)[C@H](CC[C@@H]6[C@@H]5C[C@@H](O)[C@]5(C)[C@@H](C7=CC(=O)OC7)CC[C@]65O)C4)O[C@@H]3C)O[C@@H]2C)C[C@H](O)[C@@H]1O [Digoxin, digoxin]
[3]; APP/PS1 mice
  time at which plasma concentrations reached a maximum: 0.5 h
[3]; WT mice
  time at which plasma concentrations reached a maximum: 0.5 h
In vitro
  Papp at 120 min, 0.1 µCi/mL: 14.5 ± 11 ×10⁻⁶ cm/s
  Papp at 120 min: 64.2 ± 39.4 ×10⁻⁶ cm/s
[2]; jejunum from APP/PS1 mice, listed as 3H-Digoxin
  % of initial amount at 2 h (absorbed through jejunal tissue): 0.22 ± 0.11 %
[2]; jejunum from APP/PS1 mice, listed as 3H-digoxin
  % of initial amount at 2 h (absorbed through jejunal tissue): 0.22 ± 0.11%
[2]; jejunum from WT mice, listed as 3H-Digoxin
  % of initial amount at 2 h (absorbed through jejunal tissue): 0.85 ± 0.30%
[2]; jejunum from WT mice, listed as 3H-digoxin
  % of initial amount at 2 h (absorbed through jejunal tissue): 0.85 ± 0.3%

## Cn1c(=O)c2c(ncn2C)n(C)c1=O [Caffeine, caffeine]
In vivo; APP/PS1 (B6C3-Tg (APPswe, PSEN1dE9)85Dbo/Mmjax), mouse
  Kp: 0.63 to 2.82
In vivo; WT littermates of APP/PS1, mouse
  Kp: 1.07 to 2.78
[3]; oral dose of 5 mg/kg, present study
  time post-dose at which Cmax appeared: 0.5 h
In vitro
  Papp at 120 min, 0.1 µCi/mL: 27.2 ± 13.8 ×10⁻⁶ cm/s
  Papp at 120 min: 31.4 ± 10.1 ×10⁻⁶ cm/s
[2]; jejunum from APP/PS1 mice, listed as 14C-Caffeine
  % of initial amount at 2 h (absorbed through jejunal tissue): 0.46 ± 0.14%
[2]; jejunum from APP/PS1 mice, listed as 14C-caffeine
  % of initial amount at 2 h (absorbed through jejunal tissue): 0.46%
[2]; jejunum from WT mice, listed as 14C-Caffeine
  % of initial amount at 2 h (absorbed through jejunal tissue): 0.40 ± 0.09%
[2]; jejunum from WT mice, listed as 14C-caffeine
  % of initial amount at 2 h (absorbed through jejunal tissue): 0.40%

## CN1C(=O)CN=C(c2ccccc2)c2cc(Cl)ccc21 [Diazepam, diazepam]
[2]; jejunum from APP/PS1 mice, listed as 3H-Diazepam
  % of initial amount at 2 h (absorbed through jejunal tissue): 0.52 ± 0.12%
[2]; jejunum from APP/PS1 mice, listed as 3H-diazepam
  % of initial amount at 2 h (absorbed through jejunal tissue): 0.52%
[2]; jejunum from WT mice, listed as 3H-Diazepam
  % of initial amount at 2 h (absorbed through jejunal tissue): 0.42 ± 0.12%
[2]; jejunum from WT mice, listed as 3H-diazepam
  % of initial amount at 2 h (absorbed through jejunal tissue): 0.42%
